Results on six molecules are retold here after the supplement of paper PMC11061612.

What all share (experiment): combination Emax (second highest fraction inhibited in the dose matrix, 72 h); higher = more inhibition; extreme values may be limits of the assay
Experiment [1] relates to SH-4 (Melanoma). In short, it runs like this: (§1)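 Bliss excess equals the observed combination effect minus the expected value EA + EB − EA·EB, where EA and EB are the effects of each agent alone. Combination Emax is the second-highest inhibition within the matrix. Inhibition was scaled from CellTiter-Glo 2.0 luminescence, with 0 set by vehicle wells and 1 by blank wells, after 72 hours of two-drug dosing of cells plated in 1536-well plates.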

Experiment [2] has as its system EN (Endometrial Carcinoma). In short, it runs like this:
as §1

Experiment [3] relates to RKO (Colorectal Carcinoma). A digest of the protocol: as §1
For experiment [4], the system named is HMV-II (Melanoma). In short, it runs like this:
as §1

The subject of experiment [5] is SU-DHL-6 (B-Cell Non-Hodgkin's Lymphoma). A digest of the protocol:
as §1

In experiment [6] the test system is RT-112 (Bladder Carcinoma). A digest of the protocol: as §1
In experiment [7] the test system is NB14 (Neuroblastoma). A digest of the protocol:
as §1

Experiment [8] relates to SW1116 (Colorectal Carcinoma). A digest of the protocol:
as §1

Experiment [9] relates to K5 (Thyroid Gland Carcinoma). In short, it runs like this: as §1
The test system of experiment [10] is SW1271 (Small Cell Lung Carcinoma). In short, it runs like this: as §1
Experiment [11] concerns RPMI-6666 (Non-Cancerous). A digest of the protocol:
as §1

The test system of experiment [12] is Hs-633T (Other Solid Carcinomas). A digest of the protocol:
as §1

Experiment [13] has as its system Mewo (Melanoma). In short, it runs like this:
as §1

The test system of experiment [14] is SK-OV-3 (Ovarian Carcinoma). A digest of the protocol: as §1
Experiment [15] concerns 8305C (Thyroid Gland Carcinoma). A digest of the protocol:
as §1

Experiment [16] concerns LU-139 (Small Cell Lung Carcinoma). In short, it runs like this:
as §1

Experiment [17] concerns OC-314 (Ovarian Carcinoma). A digest of the protocol:
as §1

The subject of experiment [18] is NCI-H69 (Small Cell Lung Carcinoma). In short, it runs like this:
as §1

Experiment [19] concerns PCI-30 (Head and Neck Carcinoma). In short, it runs like this:
as §1

Experiment [20] deals with HO-1-u-1 (Oral Cavity Carcinoma). In short, it runs like this:
as §1

Molecules are shown by their SMILES.

On to `O=C(c1cc(Cc2n[nH]c(=O)c3ccccc23)ccc1F)N1CCN(C(=O)C2CC2)CC1` [Olaparib] + Cc1c2c(nn1C)CSCc1cc(n(C)n1)CSc1cc(c3ccccc3c1)OCCCc1c(C(=O)O)n(C)c3c-2c(Cl)ccc13 [AZD5991] (first compound max 10 µM, 7x7, partner max 1 µM), for which the “combination Emax” value came to 0.155 in [1]; 0.476 in experiment [2]; 0.137 in [3]; 0.0925 in [4]; 1 in experiment [5]; 0.672 in experiment [6]. The “combination Emax” value in [7] worked out at 0.595; in [8], 0.0456; in experiment [9], 0.0887; in [10], 0.131; in [11], 0.794; in [12] it was 0.184. Moreover, the “combination Emax” value in [13] turned out to be 0.161; in experiment [14] it was 0.174; in experiment [15], 0.311; in experiment [16], 0.132; in experiment [17], 0.191; in experiment [18], 0.239. For the same molecule, the “combination Emax” value in experiment [19] came out at 0.103; in [20] it was 0.239.
With `O=C(c1cc(Cc2n[nH]c(=O)c3ccccc23)ccc1F)N1CCN(C(=O)C2CC2)CC1` [Olaparib] + CC1(C)CCC(CN2CCN(c3ccc(C(=O)NS(=O)(=O)c4ccc(NCC5CCOCC5)c([N+](=O)[O-])c4)c(Oc4cnc5[nH]ccc5c4)c3)CC2)=C(c2ccc(Cl)cc2)C1 [Venetoclax] (first compound max 10 µM, 7x7, partner max 1 µM), the “combination Emax” value came out at 0.148 in [1]; 0.29 in experiment [2]; 0.191 in [3]; 0.129 in experiment [4]; 0.719 in [5]; 0.0956 in experiment [6]. In addition, the “combination Emax” value was found to be 0.465 in [7]; 0.097 in experiment [8]; 0.156 in experiment [9]; 0.201 in [10]; 0.72 in experiment [11]; 0.186 in experiment [12]. In addition, the “combination Emax” value in experiment [13] turned out to be 0.0337; in [14], 0.139; in experiment [15] it was 0.232; in experiment [16], 0.655; in experiment [17], 0.188; in experiment [18], 0.614. For the same molecule, the figures for the “combination Emax” value in experiment [19] and in experiment [20] were 0.173 and 0.117, respectively.
As for `N#Cc1cnc(Nc2cc(NC[C@H]3CNCCO3)c(C(F)(F)F)cn2)cn1` [SRA737] + C=CCn1c(=O)c2cnc(Nc3ccc(N4CCN(C)CC4)cc3)nc2n1-c1cccc(C(C)(C)O)n1 [AZD1775] (first compound max 10 µM, partner max 1 µM), the “combination Emax” value in [1] is 0.656; in experiment [2], 0.696; in [3], 0.957; in [4], 0.53; in [5], 0.933; in [6], 0.954. The “combination Emax” value was 0.997 in [7]; 0.405 in experiment [8]; 0.395 in experiment [9]; 0.488 in experiment [10]; 0.865 in experiment [11]; 0.79 in experiment [12]. The “combination Emax” value in experiment [13] amounted to 0.638; in experiment [14], 0.572; in [15] it was 0.553; in experiment [16], 0.564; in experiment [17] it was 0.928; in experiment [18], 0.756. Moreover, the “combination Emax” value in [19] came out at 0.687; in experiment [20] it was 0.924.
For the molecule `Cc1c2c(nn1C)CSCc1cc(n(C)n1)CSc1cc(c3ccccc3c1)OCCCc1c(C(=O)O)n(C)c3c-2c(Cl)ccc13` [AZD5991] + CC(=O)O[C@H]1C(=O)[C@@]2(C)[C@H]([C@H](OC(=O)c3ccccc3)[C@]3(O)C[C@H](OC(=O)[C@H](O)[C@@H](NC(=O)c4ccccc4)c4ccccc4)C(C)=C1C3(C)C)[C@]1(OC(C)=O)CO[C@@H]1C[C@@H]2O [Paclitaxel] (first compound max 1 µM, 7x7, partner max 3 µM), the “combination Emax” value in experiment [1] came to 0.472; in experiment [2], 0.878; in [3] it was 1; in [4], 0.598; in experiment [5], 1; in experiment [6] it was 1. For the same molecule, the “combination Emax” value was found to be 1 in [7]; 0.438 in [8]; 0.846 in [9]; 0.472 in experiment [10]; 0.979 in experiment [11]; 0.95 in [12]. In addition, the “combination Emax” value in experiment [13] worked out at 0.692; in experiment [14], 0.54; in [15], 0.732; in experiment [16] it was 0.649; in [17], 0.995; in [18] it was 0.89. In addition, the entries for the “combination Emax” value in [19] and in experiment [20] were 0.394 and 0.752, respectively.
As for `Cc1cc2ncnn2cc1Nc1ncc2c(n1)n(C1CCOCC1)c(=O)n2C` [AZD7648] + COc1cc([C@@H]2c3cc4c(cc3[C@@H](O[C@@H]3O[C@@H]5CO[C@@H](C)O[C@H]5[C@H](O)[C@H]3O)[C@H]3COC(=O)[C@H]23)OCO4)cc(OC)c1O [Etoposide] (first compound max 10 µM, 7x7, partner max 10 µM), the “combination Emax” value came out at 0.492 in [1]; 0.481 in experiment [2]; 0.829 in experiment [3]; 0.655 in [4]; 0.991 in [5]; 0.798 in experiment [6]. The “combination Emax” value in experiment [7] came out at 0.912; in [8], 0.192; in experiment [9] it was 0.64; in experiment [10], 0.475; in experiment [11] it was 0.958; in [12], 0.842. The “combination Emax” value amounted to 0.71 in [13]; 0.399 in experiment [14]; 0.465 in [15]; 0.875 in experiment [16]; 0.978 in [17]; 0.67 in experiment [18]. The figures for the “combination Emax” value in experiment [19] and in experiment [20] were 0.553 and 0.866, respectively.
Consider `N#Cc1cnc(Nc2cc(NC[C@H]3CNCCO3)c(C(F)(F)F)cn2)cn1` [SRA737] + CCc1c2c(nc3ccc(O)cc13)-c1cc3c(c(=O)n1C2)COC(=O)[C@]3(O)CC [SN-38] (first compound max 10 µM, 7x7, partner max 0.3 µM), for which the “combination Emax” value in experiment [1] came to 0.518; in experiment [2], 0.678; in experiment [3] it was 0.925; in experiment [4], 0.546; in experiment [5], 1; in experiment [6], 0.95. The “combination Emax” value in [7] was found to be 0.981; in experiment [8], 0.616; in [9], 0.512; in experiment [10], 0.608; in experiment [11] it was 0.915; in [12], 0.831. The “combination Emax” value is 0.679 in [13]; 0.542 in experiment [14]; 0.615 in [15]; 0.747 in [16]; 0.994 in [17]; 0.82 in experiment [18]. Moreover, the “combination Emax” value in [19] is 0.843; in [20] it was 0.924.
